Assay results: patent US20240350464A1, “METHODS OF TREATING NEUROLOGICAL, MUSCULAR, AND PROLIFERATIVE DISORDERS” (Elixira Pharma AG, priority 2023, published 2024)

How the values were obtained:
Assay type in all cases: in vivo, Caenorhabditis elegans
N2 wild type worms [1] = assay: Microfluidic growth monitoring (worm size, area); settings: for effect on the worm's size (in words): vs negative control; for Variation (%) of worm area AUC: vs negative control DMSO 1%
Description: (§1) For the purpose of this study, the two compounds and four combinations of the two compounds were tested on a microfluidic platform. Worms were injected at the L4 larval stage, confined in dedicated microfluidic chambers, and continuously subjected to the presence of the two compounds, alone or in combination, from the L4 larval stage to the end of the experiment (corresponding to the day when the worm is dead). Acquisition of short sequences of videos for each microfluidic chamber containing worms were executed automatically every six (6) hours during the duration of the assay. The measurement of the motility, as well as the worm size to address compound toxicity (1) and the reproduction assessing longevity (2), were performed on the acquired sequences of videos by using an algorithm (3,4). Dead/live worms were identified automatically, based on the motility parameters. Each condition was tested in four technical replicates on different microfluidic cartridges. The experiment was performed once.
The proposed study was conducted according to the design and timeline depicted in FIG. 1. N2 wild-type C. elegans were grown on solid nematode growth medium (NGM) agar plates until the adult stage and harvested in complete S-Medium. Eggs from the adult population were hatched overnight in S-Medium and the resulting L1 progeny was recovered with a dedicated filter. L1 larvae were then collected through filtering in S-medium, seeded on NGM agar plates and grown for 48 hours (h) at 20° C. After 48 h, the worm population had reached the L4 larval stage. […]
Five time-resolved phenotypic readouts were extracted during the assays, including: • Worm size (area): this parameter was measured to evaluate the potential effects of the tested compound on growth retardation or larval arrest phenotype (7). • Sexual maturity: this parameter was measured to evaluate the potential effects of the tested compound on the timing required by a worm to reach the sexual maturity, determined by the observation of the first embryo (i.e., egg) produced in each microfluidic chamber. This phenotype was also indicative for a general sterility phenotype (i.e., no egg produced) (7). • Worm fertility: this parameter was measured to evaluate the potential effects of the tested compound on the average number of eggs produced by each worm during the reproductive span, calculated via the images acquired during the assay (7). • Reproductive span: this parameter was measured to evaluate the potential effects of the tested compound on the duration in which the worms have reproductive ability, determined by the observation of the last embryo produced in each microfluidic chamber. • Worm longevity: this parameter was measured to evaluate the potential effects of the tested compound on the worm's survival. […]

N2 wild type worms [2] = assay: Microfluidic reproduction monitoring (egg laying start/end, reproductive span, eggs laid); settings: for Eggs laid (#): average number of eggs laid per worm within the timespan of egg laying; for Eggs laid (#) / Egg laying end / Reproductive span: concentrations per Table 2; for Egg laying start: time from injection of L4 larvae until first egg, continuous exposure, concentrations per Table 2 (Cpd 1 100 μM, Cpd 2 25 mM); for Egg laying start / Egg laying end / Reproductive span: mean; for Egg laying end: time from injection of L4 larvae until last egg; for Reproductive span: timespan of egg laying; for Variation (%) of egg laying end (time of the last egg laid) / Variation (%) of egg laying start / Variation (%) of eggs laid / Variation (%) of reproductive span (timespan of egg laying): vs negative control DMSO 1%
Description: as §1
(§2) The proposed study was conducted according to the design and timeline depicted in FIG. 1. N2 wild-type C. elegans were grown on solid nematode growth medium (NGM) agar plates until the adult stage and harvested in complete S-Medium. Eggs from the adult population were hatched overnight in S-Medium and the resulting L1 progeny was recovered with a dedicated filter. L1 larvae were then collected through filtering in S-medium, seeded on NGM agar plates and grown for 48 hours (h) at 20° C. […] L4 larvae were then collected through filtering in 5 mL S-medium. 20 to 30 L4 were injected in the microfluidic chips for each condition. Worms were then continuously fed on-chip via bacterial medium, for the duration of the entire experiment. Videos of each micro-chamber were acquired after the feeding during the whole experiment, every 6 hours.
(§3) The two compounds, Compound 1 and Compound 2, were suspended in DMSO at the stock concentration of 100 mM and 2.5 M, respectively (Table 1). Compounds were then mixed with the bacterial medium at the targeted concentrations, alone or in combination (Table 2). For all tested conditions, the final vehicle (DMSO) concentration was 1%. For the negative control condition, nematodes were fed with a bacterial medium containing only the vehicle solution (DMSO 1%). All stock solutions were stored at −20° C. and dilutions were made freshly on the day of starting the on-chip experiment and then every 72 h to replace the compound/bacterial medium solutions.
Five time-resolved phenotypic readouts were extracted during the assays, including: • Worm size (area): this parameter was measured to evaluate the potential effects of the tested compound on growth retardation or larval arrest phenotype (7). • Sexual maturity: this parameter was measured to evaluate the potential effects of the tested compound on the timing required by a worm to reach the sexual maturity, determined by the observation of the first embryo (i.e., egg) produced in each microfluidic chamber.
Bar graphs represent mean+/−sem. p values were obtained by comparing the negative control (blue bars) versus the treatment via One-way ANOVA followed by Bonferroni's multiple comparisons test (p<0.05). * statistics versus the negative control (DMSO 1%).

N2 wild type worms [3] = assay: Microfluidic motility monitoring (head, midbody, tail amplitude, bending frequency, velocity); settings: vs negative control; for overall motility: all motility parameters improved, in average: all 5 parameters
Description: as §1, §2, §3
Worm motility is an additional phenotypic readout, where five parameters of the motility were assessed every 6 hours from acquired videos (2 seconds long, 10 frames per second for each video). At each time point, the values recorded for dead worms were excluded. The five motility parameters monitored included (3): • the amplitude of the movement at the head • the amplitude of the movement at the middle of the worm body • the amplitude of tail movement • the worm bending frequency • the worm velocity
These motility parameters were analyzed by phases (Area Under the Curve calculation following by an 2-way ANOVA tests), as defined below: • Phase 1: from day 1 to day 5 • Phase 2: from day 6 to day 10 • Phase 3: from day 11 to day 15 • Phase 4: from day 16 to day 20

effect on the worm's size (in words) (N2 wild type worms [1]) | SMILES | Variation (%) of worm area AUC (N2 wild type worms [1]) | Eggs laid (#) (N2 wild type worms [2]) | Egg laying start (N2 wild type worms [2]) [h] | Egg laying end (N2 wild type worms [2]) [h] | Reproductive span (N2 wild type worms [2]) [h] | Variation (%) of egg laying end (time of the last egg laid) (N2 wild type worms [2]) | Variation (%) of egg laying start (N2 wild type worms [2]) [%] | Variation (%) of eggs laid (N2 wild type worms [2]) [%] | Variation (%) of reproductive span (timespan of egg laying) (N2 wild type worms [2]) | overall motility: all motility parameters improved, in average (N2 wild type worms [3]) [%] | motility in Phase 1 (in words) (N2 wild type worms [3]; Phase 1 (D0 to D5)) | motility in Phase 2 (in words) (N2 wild type worms [3]; Phase 2 (D6 to D10)) | motility in Phase 3 (in words) (N2 wild type worms [3]; Phase 3 (D11 to D15)) | motility in Phase 4 (in words) (N2 wild type worms [3]; Phase 4 (D16 to D20)) | overall motility of the worms (in words) (N2 wild type worms [3]; 2-way ANOVA)
significant improvement | CO[C@H]1C[C@@H]2CC[C@@H](C)[C@@](O)(O2)C(=O)C(=O)N2CCCC[C@H]2C(=O)O[C@H]([C@H](C)C[C@@H]2CC[C@@H](O)[C@H](OC)C2)CC(=O)[C@H](C)/C=C(\C)[C@@H](O)[C@@H](OC)C(=O)[C@H](C)C[C@H](C)/C=C/C=C/C=C/1C [Cpd 1, rapamycin] | +0.8% | 96.6 # | 29.59 | 144.0 | 114.4 | −3.1% | −3.2 | −32.9 | −3.1% | 14 |  |  |  |  | 
significant decrease | CN(C)C(=N)N=C(N)N [Cpd 2, metformin] | −3.3% | 94.9 # | 29.63 | 152.7 | 123.1 | +2.8% | −3.1 | −34.1 | +4.3% | 22 | significant increase in almost all the motility parameters | significant increase in almost all the motility parameters | No effect on the motility | No effect on the motility | significantly increased
